Structures can show the parent of a compound that is named as a salt.
Legend:
Type in all cases: in vivo
Killifishes (Medaka) = test: Acute toxicity to fish, survival ratio (Example 13); details: killifish
Experimental: Killifishes (Japanese name, Medaka), were obtained from a market and maintained in a water bath at 25±2° C. for a week. Then the fishes (each group consisting of 10 fishes) were placed in water baths containing the test compounds at given concentrations as shown in the following Table. 24 and 48 hours after this, the survival ratio (%) of each group was visually counted to assess the acute toxity.

Chamaecyparis obtusa = test: Foliage treatment of woody plants (Example 10); set-up: key to damage to the plants, scale 0 to 5: 0 indicates no effect; 5 indicates complete kill; details: CH Chamaecyparis obtusa
Text: (§1) Aqueous solutions containing Phosalacine (Na salt) at different concentrations and 0.1% of octylphenylpolyoxy ethanol as surfactant were applied at a rate of 1500 liter per hectare to woody plants of about 60-70 cm in height. 7 and 14 days after the foliage treatment, damage to the plants was visually assessed on a scale of from 0 to 5 (cf. Example 7).

Cryptomeria japonica = test: Foliage treatment of woody plants (Example 10); set-up: key to damage to the plants, scale 0 to 5: 0 indicates no effect; 5 indicates complete kill; details: CP Cryptomeria japonica
Text: as §1

Larix leptolepis = test: Foliage treatment of woody plants (Example 10); set-up: key: 0 indicates no effect; 5 indicates complete kill; details: Plant No. 23 Larix leptolepis
Text: as §1

Picea densiflora = test: Foliage treatment of woody plants (Example 10); set-up: key: 0 indicates no effect; 5 indicates complete kill; details: Plant No. 22 Picea densiflora
Text: as §1

Castanea crenata = test: Foliage treatment of woody plants (Example 10); set-up: key: 0 indicates no effect; 5 indicates complete kill; details: Plant No. 8 Castanea crenata
Text: as §1

Solanum melongena = test: Foliage treatment (Example 8); set-up: key: 0 indicates no effect; 5 indicates complete kill; details: Plant No. 31 Solanum melongena
Experimental: (§2) Aqueous solutions of Phosalacine (Na salt) at different concentrations were applied at a rate of 1500 liters per hectare to naturally occurring plants or plants which were cultured on plates as shown in the following Table at certain stages of growth. […] One month after the foliage treatment, the inhibition of regrowth of the plants was visually investigated.

Pleioblastus chino = test: Foliage treatment (Example 8); set-up: key: 0 indicates no effect; 5 indicates complete kill; details: Plant No. 11 Pleioblastus chino
Experimental: as §2

Pueraria lobata = test: Foliage treatment (Example 8); set-up: key: 0 indicates no effect; 5 indicates complete kill; details: Plant No. 16 Pueraria lobata
Experimental: as §2

Imperata cyrindrica = test: Foliage treatment (Example 8); set-up: key: 0 indicates no effect; 5 indicates complete kill; details: Plant No. 15 Imperata cyrindrica
Experimental: as §2

Cayratia japonica = test: Foliage treatment (Example 8); set-up: key: 0 indicates no effect; 5 indicates complete kill; details: Plant No. 13 Cayratia japonica
Experimental: as §2

Triticum aestivum = test: Foliage treatment (Example 8); set-up: key: 0 indicates no effect; 5 indicates complete kill; details: Plant No. 26 Triticum aestivum
Experimental: as §2

Rumex obtusifolius = test: Foliage treatment (Example 8); set-up: key: 0 indicates no effect; 5 indicates complete kill; details: Plant No. 14 Rumex obtusifolius
Experimental: as §2

Helianthus tuberosus = test: Foliage treatment (Example 8); set-up: key: 0 indicates no effect; 5 indicates complete kill; details: Plant No. 12 Helianthus tuberosus
Experimental: as §2

Oryzae sativa = test: Foliage treatment (Example 8); set-up: key: 0 indicates no effect; 5 indicates complete kill; details: Plant No. 25 Oryzae sativa
Experimental: as §2

Daucus carota = test: Foliage treatment (Example 8); set-up: key: 0 indicates no effect; 5 indicates complete kill; details: Plant No. 29 Daucus carota
Experimental: as §2

CC(C)C[C@H](NC(=O)[C@H](C)NC(=O)[C@@H](N)CCP(C)(=O)O)C(=O)O [Phosalacine (Na salt)]
100%: Survival ratio (%) (Killifishes (Medaka); 20 ppm, 24 hours) | Survival ratio (%) (Killifishes (Medaka); 20 ppm, 48 hours) | Survival ratio (%) (Killifishes (Medaka); 100 ppm, 24 hours)
2: damage to the plants, scale 0 to 5 (Cryptomeria japonica; 0.5%, 14 days)
0: damage to the plants, scale 0 to 5 (Chamaecyparis obtusa; 0.125%, 7 days) | damage to the plants, scale 0 to 5 (Chamaecyparis obtusa; 0.125%, 14 days) | damage to the plants, scale 0 to 5 (Chamaecyparis obtusa; 0.25%, 7 days) | damage to the plants, scale 0 to 5 (Chamaecyparis obtusa; 0.25%, 14 days) | damage to the plants, scale 0 to 5 (Chamaecyparis obtusa; 0.5%, 7 days) | damage to the plants, scale 0 to 5 (Chamaecyparis obtusa; 0.5%, 14 days) | damage to the plants, scale 0 to 5 (Cryptomeria japonica; 0.125%, 7 days) | damage to the plants, scale 0 to 5 (Cryptomeria japonica; 0.125%, 14 days) | damage to the plants, scale 0 to 5 (Cryptomeria japonica; 0.25%, 7 days) | damage to the plants, scale 0 to 5 (Cryptomeria japonica; 0.5%, 7 days)
1: damage to the plants, scale 0 to 5 (Cryptomeria japonica; 0.25%, 14 days)
3: damage to the plants, scale 0 to 5 (Solanum melongena; 0.05%, 7 days) | damage to the plants, scale 0 to 5 (Pleioblastus chino; 0.05%, 7 days) | damage to the plants, scale 0 to 5 (Pueraria lobata; 0.05%, 7 days) | damage to the plants, scale 0 to 5 (Imperata cyrindrica; 0.05%, 7 days) | damage to the plants, scale 0 to 5 (Cayratia japonica; 0.05%, 7 days) | damage to the plants, scale 0 to 5 (Triticum aestivum; 0.05%, 7 days) | damage to the plants, scale 0 to 5 (Rumex obtusifolius; 0.05%, 7 days) | damage to the plants, scale 0 to 5 (Helianthus tuberosus; 0.05%, 7 days) | damage to the plants, scale 0 to 5 (Oryzae sativa; 0.05%, 7 days) | damage to the plants, scale 0 to 5 (Daucus carota; 0.05%, 7 days)
0%: Survival ratio (%) (Killifishes (Medaka); 500 ppm, 24 hours) | Survival ratio (%) (Killifishes (Medaka); 500 ppm, 48 hours)
50%: Survival ratio (%) (Killifishes (Medaka); 100 ppm, 48 hours)
5: damage to the plants, scale 0 to 5 (Larix leptolepis; 0.125%, 14 days) | damage to the plants, scale 0 to 5 (Larix leptolepis; 0.25%, 14 days) | damage to the plants, scale 0 to 5 (Larix leptolepis; 0.5%, 14 days) | damage to the plants, scale 0 to 5 (Picea densiflora; 0.125%, 14 days) | damage to the plants, scale 0 to 5 (Picea densiflora; 0.25%, 14 days) | damage to the plants, scale 0 to 5 (Picea densiflora; 0.5%, 14 days) | damage to the plants, scale 0 to 5 (Castanea crenata; 0.125%, 7 days) | damage to the plants, scale 0 to 5 (Castanea crenata; 0.125%, 14 days) | damage to the plants, scale 0 to 5 (Castanea crenata; 0.25%, 7 days) | damage to the plants, scale 0 to 5 (Castanea crenata; 0.25%, 14 days) | damage to the plants, scale 0 to 5 (Castanea crenata; 0.5%, 7 days) | damage to the plants, scale 0 to 5 (Castanea crenata; 0.5%, 14 days) | damage to the plants, scale 0 to 5 (Solanum melongena; 0.05%, 14 days) | damage to the plants, scale 0 to 5 (Solanum melongena; 0.1%, 7 days) | damage to the plants, scale 0 to 5 (Solanum melongena; 0.1%, 14 days) | damage to the plants, scale 0 to 5 (Pleioblastus chino; 0.1%, 7 days) | damage to the plants, scale 0 to 5 (Pleioblastus chino; 0.1%, 14 days) | damage to the plants, scale 0 to 5 (Pueraria lobata; 0.1%, 7 days) | damage to the plants, scale 0 to 5 (Pueraria lobata; 0.1%, 14 days) | damage to the plants, scale 0 to 5 (Imperata cyrindrica; 0.1%, 7 days) | damage to the plants, scale 0 to 5 (Imperata cyrindrica; 0.1%, 14 days) | damage to the plants, scale 0 to 5 (Cayratia japonica; 0.1%, 7 days) | damage to the plants, scale 0 to 5 (Cayratia japonica; 0.1%, 14 days) | damage to the plants, scale 0 to 5 (Triticum aestivum; 0.1%, 7 days) | damage to the plants, scale 0 to 5 (Triticum aestivum; 0.1%, 14 days) | damage to the plants, scale 0 to 5 (Rumex obtusifolius; 0.1%, 7 days) | damage to the plants, scale 0 to 5 (Rumex obtusifolius; 0.1%, 14 days) | damage to the plants, scale 0 to 5 (Helianthus tuberosus; 0.1%, 7 days) | damage to the plants, scale 0 to 5 (Helianthus tuberosus; 0.1%, 14 days) | damage to the plants, scale 0 to 5 (Oryzae sativa; 0.1%, 7 days) | damage to the plants, scale 0 to 5 (Oryzae sativa; 0.1%, 14 days) | damage to the plants, scale 0 to 5 (Daucus carota; 0.1%, 7 days) | damage to the plants, scale 0 to 5 (Daucus carota; 0.1%, 14 days)
4: damage to the plants, scale 0 to 5 (Larix leptolepis; 0.125%, 7 days) | damage to the plants, scale 0 to 5 (Larix leptolepis; 0.25%, 7 days) | damage to the plants, scale 0 to 5 (Larix leptolepis; 0.5%, 7 days) | damage to the plants, scale 0 to 5 (Picea densiflora; 0.125%, 7 days) | damage to the plants, scale 0 to 5 (Picea densiflora; 0.25%, 7 days) | damage to the plants, scale 0 to 5 (Picea densiflora; 0.5%, 7 days) | damage to the plants, scale 0 to 5 (Pleioblastus chino; 0.05%, 14 days) | damage to the plants, scale 0 to 5 (Pueraria lobata; 0.05%, 14 days) | damage to the plants, scale 0 to 5 (Imperata cyrindrica; 0.05%, 14 days) | damage to the plants, scale 0 to 5 (Cayratia japonica; 0.05%, 14 days) | damage to the plants, scale 0 to 5 (Triticum aestivum; 0.05%, 14 days) | damage to the plants, scale 0 to 5 (Rumex obtusifolius; 0.05%, 14 days) | damage to the plants, scale 0 to 5 (Helianthus tuberosus; 0.05%, 14 days) | damage to the plants, scale 0 to 5 (Oryzae sativa; 0.05%, 14 days) | damage to the plants, scale 0 to 5 (Daucus carota; 0.05%, 14 days)

From patent US4613355A, “Antibiotic having herbicidal activity” (Satoshi Omura, priority 1983, dated 1986)
